Reference: article PMC12508057, “Discovery of ETI41 and ETI60: novel selective endosomal Toll-like receptor inhibitors for the treatment of autoimmune diseases” (Experimental & Molecular Medicine, 2025)
Like-named read-outs stand apart in the source and are kept apart here.

Tests used:
mTLR3 = biological target: T1, mTLR3 (Mus musculus, UniProt Q99MB1); test: TLR3 inhibition, poly I:C-induced mTNFα in RAW 264.7; format: cell-based
T1 construct: reduction in TNF-α secretion in mouse RAW 264.7 cells; endogenous in cells; host or cells: RAW 264.7
T1 sequence (Q99MB1 26-905): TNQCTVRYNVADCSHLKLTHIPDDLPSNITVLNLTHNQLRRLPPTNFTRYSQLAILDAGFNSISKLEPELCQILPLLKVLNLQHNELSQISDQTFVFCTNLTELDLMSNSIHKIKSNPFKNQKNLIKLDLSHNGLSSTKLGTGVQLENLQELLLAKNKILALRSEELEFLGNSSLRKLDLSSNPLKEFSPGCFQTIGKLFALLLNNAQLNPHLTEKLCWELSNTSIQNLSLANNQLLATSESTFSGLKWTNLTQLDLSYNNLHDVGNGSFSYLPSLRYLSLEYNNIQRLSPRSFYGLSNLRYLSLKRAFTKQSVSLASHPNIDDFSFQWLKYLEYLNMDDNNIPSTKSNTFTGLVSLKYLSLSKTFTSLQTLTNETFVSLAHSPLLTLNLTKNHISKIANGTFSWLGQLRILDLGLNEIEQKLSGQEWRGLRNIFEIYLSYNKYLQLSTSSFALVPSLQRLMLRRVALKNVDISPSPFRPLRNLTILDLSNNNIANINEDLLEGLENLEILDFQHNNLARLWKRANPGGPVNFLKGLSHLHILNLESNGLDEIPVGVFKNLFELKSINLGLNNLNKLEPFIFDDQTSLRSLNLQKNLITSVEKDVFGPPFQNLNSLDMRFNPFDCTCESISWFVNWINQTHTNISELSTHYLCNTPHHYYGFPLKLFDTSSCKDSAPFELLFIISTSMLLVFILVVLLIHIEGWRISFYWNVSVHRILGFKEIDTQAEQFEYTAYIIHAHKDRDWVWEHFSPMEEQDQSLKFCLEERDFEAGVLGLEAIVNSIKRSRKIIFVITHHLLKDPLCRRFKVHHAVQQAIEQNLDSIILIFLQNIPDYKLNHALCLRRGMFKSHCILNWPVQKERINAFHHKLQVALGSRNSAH
Protocol: RAW 264.7 and differentiated THP-1 cells were seeded into 96-well plates at 2 × 10^4 cells per well, while Daudi cells were seeded at 5 × 10^4 cells per well. After stabilization for 30 min, cells were stimulated with specific TLR agonists for 4 or 24 h. Supernatants were diluted and transferred to precoated ELISA plates to measure TNF-α secretion using kits from Invitrogen. Optical absorbance was measured using a BioTek Synergy HTX multimode microplate reader, and data were interpolated using BioTek Gen5 software.
One-tailed paired Student’s t-tests were performed using Microsoft Excel (Microsoft). Semi-logarithmic conversions and nonregression curve analyses for calculating 50% lethal concentration (LC50) and 50% inhibitory concentration (IC50) values were conducted using GraphPad Prism 7.0 (GraphPad). The therapeutic index was calculated as […]. Animal experimental results are expressed as mean ± standard deviation and analyzed using SPSS v.20 (IBM SPSS Statistics). Homogeneity of variance was assessed using Levene’s test. […]

SLE in MRL/lpr mice = test: MRL/lpr mouse model of SLE; format: in vivo; conditions: 30 mg/kg oral daily for 39 days; for Anti-dsDNA antibodies / Antinuclear antibody (ANA) / IgG in the kidney: compared with HCQ 60 mg/kg; for Alopecia and skin rashes: compared with vehicle and HCQ
Protocol: MRL/MpJ-Fas^lpr/J lupus-prone mice were purchased from Jackson Laboratory to evaluate the effects of ETI41 and ETI60 on the pathophysiology of genetic SLE. This study was approved by the IACUC, Ajou University (approval no. 2019-0046). Fourteen-week-old mice were assigned to the following treatment groups: vehicle (n = 3), ETI60 (n = 3), ETI41 (n = 4) and HCQ (n = 3). These groups were administered daily oral doses of 30 mg/kg ETI41 or ETI60, or 60 mg/kg HCQ for 39 days. All compounds were dissolved in a vehicle comprising ethanol, polyethylene glycol (PEG400) and distilled water at a 1:4:5 ratio. The body weights of the mice were measured every 3 days. Mice were anesthetized in an induction chamber with a gas mixture of 4% isoflurane in 70:30 […] and O2, delivered at a flow rate of 0.8 l/min. Upon completion of the treatment period, paired axillary and popliteal lymph nodes were collected and weighed. Blood samples were taken and maintained in BD Microtainer SST tubes (BD Biosciences), with serum isolated through centrifugation at 3,393g for 30 min at 4 °C. Serum markers, including complement component C3, ANA, anti-dsDNA and total IgG, were evaluated using ELISA kits (MyBioSource). Renal IgG levels were monitored by western blotting using anti-mouse IgG (Thermo Fisher Scientific) and β-actin antibodies (Bethyl Laboratories). Statistical significance among groups was analyzed using IBM SPSS Statistics (v.25.0; IBM Corporation), with statistical significance set at P < 0.05.
Fig. 5 Therapeutic efficacy of ETI41 and ETI60 in SLE mouse model. a Summary of the experimental validation of ETI41 and ETI60 in the MRL/lpr female mouse model of SLE. […] Statistical differences between the induced case and other cases were analyzed and verified using a one-tailed Student’s t-test (*P < 0.05, **P < 0.01, ***P < 0.001).

Daudi cells = test: Water-soluble tetrazolium assay, cell viability in Daudi; format: cell-based
Protocol: Daudi cells were seeded into 96-well plates at a density of 5 × 10^4 cells per well.
(§1) One-tailed paired Student’s t-tests were performed using Microsoft Excel (Microsoft). […] The therapeutic index was calculated as […]. Animal experimental results are expressed as mean ± standard deviation and analyzed using SPSS v.20 (IBM SPSS Statistics). Homogeneity of variance was assessed using Levene’s test.
(§2) Data are from at least three independent experiments (n = 3) and statistical differences between the induced case and other cases were analyzed and verified using a one-tailed Student’s t-test (*P < 0.05, **P < 0.01, ***P < 0.001).

[1] = MTT assay, cell survival in RAW 264.7; format: cell-based; conditions: mouse, RAW 264.7 cell line, read-out: LC50
Protocol: After 24 h, the supernatant was removed, and 500 μg/ml of 3-[4,5-dimethylthiazol-2-yl]-2,5 diphenyl tetrazolium bromide (MTT) solution (Invivogen) was added. After a 3 h incubation, the supernatant was removed, and DMSO was added to dissolve the formazan dye.
as §1, §2

| SMILES | IC50 (mTLR3) [µM] | Body weight (SLE in MRL/lpr mice) | Lymph node weights (SLE in MRL/lpr mice) | Anti-dsDNA antibodies (SLE in MRL/lpr mice) | Antinuclear antibody (ANA) (SLE in MRL/lpr mice) | IgG in the kidney (SLE in MRL/lpr mice) | Alopecia and skin rashes (SLE in MRL/lpr mice) | Cell viability (LD50), cytotoxicity (Daudi cells) | CC50 at 24 h [1] [µM] | Complement C3 levels (SLE in MRL/lpr mice; serum) | CC50 at 24 h ([1]; RAW 264.7 cells) [µM] |
| --- | --- | --- | --- | --- | --- | --- | --- | --- | --- | --- | --- |
| Cc1cc2c(N)c3c(nc2n1CCCN(C)C)CCCCCC3 [ETI41] | 0.993 | prevented weight gain or loss | notably lower | reduced | reduced | reduced | substantially reduced | >200,000 nM | 67.2 |  |  |
| COc1ccc2c3c(N)c4c(nc3n(CCCN(C)C)c2c1)CCCC4 [ETI60] | 0.372 | prevented weight gain or loss | notably lower | reduced | reduced | reduced | substantially reduced | 38,410 nM |  | increased | 51.2 |
